Results as given in the supplement of paper PMC10307832.

Columns and labels:
Pictilisib = compound: CS(=O)(=O)N1CCN(Cc2cc3nc(-c4cccc5[nH]ncc45)nc(N4CCOCC4)c3s2)CC1 [Pictilisib]; test: relative viability (nuclei count vs DMSO), 5 days (fraction); higher = more cells survive
Procedure, shortened: (§1)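 Nuclei counted with MetaXpress define viability as the ratio of treated to vehicle wells, given as a median across plates. The lung cancer cell lines were in 1536-well plates, pinned with five √10-spaced library-drug doses and imaged at 4× after 5 days and Hoechst staining. Plates passed with control CV below 25% and at least one doubling.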

MK-2206 = compound: NC1(c2ccc(-c3nc4ccn5c(=O)[nH]nc5c4cc3-c3ccccc3)cc2)CCC1 [MK-2206]; test: as above
Procedure, shortened: as §1

Cell Line	relative viability (Pictilisib; 0.02 µM)	relative viability (Pictilisib; 0.06325 µM)	relative viability (Pictilisib; 0.6325 µM)	relative viability (Pictilisib; 1 µM, anchor plate)	relative viability (Pictilisib; 2 µM)	relative viability (MK-2206; 0.01 µM)	relative viability (MK-2206; 0.03162 µM)	relative viability (MK-2206; 0.3162 µM)	relative viability (MK-2206; 1 µM)
COR-L 105	1.1	0.974	0.871	0.391	0.555	0.854	0.958	0.934	0.801
LU99A	1.01	0.971	0.794	0.327	0.425	1.01	1.07	0.961	1.02
NCI-H596	0.98	0.957	0.684	0.405	0.373	1.07	0.929	0.948	0.669
201T	0.97	0.964	0.921	0.702	0.64	0.987	1.03	0.982	0.995
HCC-15	1.1	1.02	0.866	0.737	0.666	0.996	1.06	0.866	0.923
